The test system of experiment [1] is MPTP-lesioned mice. The format is in vivo, C57BL/6 mice. The procedure: Experimental mice were lesioned with MPTP (i.e., 40 mg/kg, ip twice, 1 month).
METHODS: Rota-Rod performance measures the length of time each animal manages to maintain its balance on the rotating lucite rod. Prior to MPTP-esioning animals, the performance was conditioned in three training sessions. The general training and testing procedure was as follows: namely,
Animals were placed on a stationary rod for 30 sec to accustom the behavior and establish familiarity with the environment. During this time if an animal fell, it was placed back on the rod; Next, animals were conditioned (or tested) at a constant speed of 5 rpm for 90 sec.;
Any animal that failed a first test was re-tested two more times; Any animal that failed a third test at 5 rpm was removed from the experiment; Thirty-minutes (30 min) after the last 5 rpm trial, each animal was placed back on the rod the speed was increased to 10 rpm; The length of time that each animal was able to maintain balance on the rod was measured at the constant speed of 10 rpm, i.e., data collection.

Experiment [2] relates to 6-OHDA-lesioned rats. The text has this: The nigral dopamine depletion is induced by using unilateral injections of 6-OHDA directly into the nigrostriatal system (AP: −4.4 mm, ML: 1.1 mm, DV: 7.5 mm, AP: −4.0 mm, ML: 0.8 mm, DV: 7.8 mm).
METHODS for STUDY #2: The Rota-Count 8 unit is an eight channel rotational meter. The system utilizes a digital rotary encoder and each encoder is mounted in a small bowl with a cable attachment; thereby, rotations of rats are automatically recorded. 6-OHDA in 0.9% NaCl at a concentration of 0.2% (w/v)-8 μl injected into the nigrostriatum. To control for injection failures in the injections, only 6-OHDA-lesioned rats that rotated more than 5 cycles/min at 7 days post-injection were selected for experimental use.

The target in experiment [3] is human DAT (Homo sapiens, UniProt Q01959). The procedure: To obtain differing levels of DAT expression, cells were transiently transfected) with plasmids containing a DAT cDNA insert (hDAT), or alternatively, control irrelevant cDNA insert (Negative Control, NC). After 48-72 hrs. culture, dopamine transport was measured in the transiently transfected hDAT-cells by incubation for 5 hrs. in the presence of ^3H-labeled dopamine (Positive Control, PC).
human DAT, sequence (Q01959 whole entry): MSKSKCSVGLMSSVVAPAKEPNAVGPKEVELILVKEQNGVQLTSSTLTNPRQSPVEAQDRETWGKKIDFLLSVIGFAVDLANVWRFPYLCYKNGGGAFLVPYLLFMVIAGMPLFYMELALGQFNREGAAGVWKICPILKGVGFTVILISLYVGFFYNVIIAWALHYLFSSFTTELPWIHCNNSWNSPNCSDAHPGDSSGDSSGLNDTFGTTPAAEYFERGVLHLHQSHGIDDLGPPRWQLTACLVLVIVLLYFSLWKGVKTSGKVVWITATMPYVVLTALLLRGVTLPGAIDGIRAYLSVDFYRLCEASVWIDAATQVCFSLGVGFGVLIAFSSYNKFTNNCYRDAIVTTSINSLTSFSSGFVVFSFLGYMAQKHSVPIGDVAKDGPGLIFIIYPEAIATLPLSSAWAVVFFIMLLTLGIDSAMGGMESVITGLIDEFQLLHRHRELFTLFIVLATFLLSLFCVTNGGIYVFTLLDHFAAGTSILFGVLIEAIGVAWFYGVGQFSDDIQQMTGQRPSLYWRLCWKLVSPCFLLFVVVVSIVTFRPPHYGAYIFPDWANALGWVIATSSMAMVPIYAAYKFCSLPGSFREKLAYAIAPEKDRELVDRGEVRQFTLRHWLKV

In experiment [4] the test system is Tyrosine hydroxylase (TH). The conditions noted are these: 20 mg/kg for two months vs NaCl.
The test system of experiment [5] is Nurr1 deficient mice. On the procedure:
Rota rod performance measurements were made on a weekly basis during an 8 week treatment period.
MATERIALS AND METHODS: RotaRod performance measurements (time that balance was maintained on the rod) were performed (as in Study #1), each week during 8 weeks of treatment.

Data on two compounds can be found in patent publication US8252752B2 (priority 2000, dated 2012).

Entries after “also recorded” stand apart in the source; their conditions may differ.

As to `CN1CC=C(c2ccccc2)CC1` [MPTP, 1,2,3,6-methyl-phenyl-tetrahydropyridine, reference compound], the “reduction of Rota-Rod mean time” value in experiment [1] (after lesioning, 40 mg/kg ip twice) was “over 65%”.

Dopamine gluconamide [Compound #1]: the apomorphine-induced rotation entry in experiment [2] (20 mg/kg, 4 weeks, p<0.05) was “significantly decreased apomorphine-induced rotation”. In addition, the “agonist effects (rotation triggered by the compound itself)” value in experiment [2] (80 mg/kg or 200 mg/kg) is on record as “did not trigger visible effects”. Moreover, the “competition of 3H-dopamine uptake” value in experiment [3] (hDAT-transfected cells, 5 hrs. incubation) was “Competition of ^3H-dopamine uptake was observed”. In addition, the “transportability at DAT” value in experiment [3] (summary of EXAMPLE 12) was “transportable at DAT”. In experiment [4], the “amount of TH per neuron” value is on record as “qualitatively much higher”. In addition, the “increase in number of neurons staining positively for TH” value in experiment [4] (not statistically significant, n=6) is listed as 20-30%. The “stability of Rota Rod performance during treatment” value in experiment [5] (20 mg/kg twice daily, 8 weeks) is recorded as “remained stable during the course of the 8-week treatment study”. The “improvement of Rota Rod performance relative to saline treated controls” value in experiment [5] (20 mg/kg twice daily, within two weeks of treatment) is on record as “about 2 fold”. The “Rota-Rod time compared with pretreatment performance times” value in experiment [5] (20 mg/kg, p<0.05) was “significant increase of Rota-Rod time within two weeks of treatment”. Further, the “time to return of Rota-Rod performance to pre-treatment values after cessation of treatment” value in experiment [5] (after 8 weeks of treatment) was at most 2 weeks. Moreover, in experiment [5] (after 8 weeks of treatment, p<0.05), the “Rota-Rod performance after cessation of treatment (washout)” value is on record as “degraded significantly within one week”. For the same compound, in experiment [1] (mouse, in vivo), the “Rota-Rod performance times relative to NaCl-treated controls” value is reported as 8-9 fold and the “onset of significant improvement in Rota-rod performance times” value is recorded as “about the third week of treatment; also recorded: about the second week”. For the same compound, the “locomotor activity after two months of treatment” value in experiment [1] (mouse, in vivo, ip, 20 mg/kg) was “recovered locomotor activity”.
